For experiment [1], the system named is RS4-11. As to the kind of experiment: Antiproliferative activity against human RS4-11 cells assessed as inhibition of cell proliferation measured after 6 days by CCK8 assay. The class given is functional, cell-based. Conditions: RS4-11, 144 h.
Experiment [2] concerns the target T1, Histone-lysine N-methyltransferase NSD2 (Homo sapiens) (UniProt O96028).
T1 sequence (whole entry): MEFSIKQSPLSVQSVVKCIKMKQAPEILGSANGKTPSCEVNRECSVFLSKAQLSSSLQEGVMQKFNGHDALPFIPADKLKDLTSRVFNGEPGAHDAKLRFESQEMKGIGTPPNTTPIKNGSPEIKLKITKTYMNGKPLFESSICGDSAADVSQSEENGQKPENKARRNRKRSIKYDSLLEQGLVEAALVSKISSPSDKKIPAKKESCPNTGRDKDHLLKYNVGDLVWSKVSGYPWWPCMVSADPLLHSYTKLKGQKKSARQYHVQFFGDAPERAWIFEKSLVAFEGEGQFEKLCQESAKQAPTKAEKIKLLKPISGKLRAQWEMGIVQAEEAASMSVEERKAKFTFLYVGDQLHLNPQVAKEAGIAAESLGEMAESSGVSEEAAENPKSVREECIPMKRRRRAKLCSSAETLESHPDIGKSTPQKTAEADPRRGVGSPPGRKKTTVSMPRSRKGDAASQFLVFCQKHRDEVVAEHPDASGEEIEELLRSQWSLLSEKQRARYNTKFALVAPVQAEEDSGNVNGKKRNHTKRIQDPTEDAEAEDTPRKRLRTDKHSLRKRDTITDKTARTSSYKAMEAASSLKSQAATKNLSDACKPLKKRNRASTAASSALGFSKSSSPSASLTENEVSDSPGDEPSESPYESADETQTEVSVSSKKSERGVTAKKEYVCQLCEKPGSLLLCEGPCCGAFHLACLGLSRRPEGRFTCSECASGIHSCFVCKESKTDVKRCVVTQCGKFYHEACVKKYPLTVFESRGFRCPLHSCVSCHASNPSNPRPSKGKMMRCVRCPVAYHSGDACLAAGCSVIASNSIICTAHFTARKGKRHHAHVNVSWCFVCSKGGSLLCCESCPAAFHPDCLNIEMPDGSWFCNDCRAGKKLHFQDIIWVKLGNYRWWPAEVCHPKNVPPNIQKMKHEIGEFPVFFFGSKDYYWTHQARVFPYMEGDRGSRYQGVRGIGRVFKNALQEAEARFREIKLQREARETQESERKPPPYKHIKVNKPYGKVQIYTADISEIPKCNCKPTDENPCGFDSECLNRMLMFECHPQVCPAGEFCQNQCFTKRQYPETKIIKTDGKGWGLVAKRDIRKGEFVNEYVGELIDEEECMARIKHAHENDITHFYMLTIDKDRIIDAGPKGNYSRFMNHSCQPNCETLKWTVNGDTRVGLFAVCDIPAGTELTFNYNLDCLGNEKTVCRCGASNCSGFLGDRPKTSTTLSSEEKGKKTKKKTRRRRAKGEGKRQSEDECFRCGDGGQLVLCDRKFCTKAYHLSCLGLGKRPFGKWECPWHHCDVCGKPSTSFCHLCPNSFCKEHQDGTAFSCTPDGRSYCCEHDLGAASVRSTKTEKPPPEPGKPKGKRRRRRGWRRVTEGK
As to the kind of experiment: Inhibition of NSD2 in human KMS-11 cells assessed as decrease in RRAS2 gene expression at 10 uM incubated for 72 hrs by RT-PCR analysis. It counts as cell-based.

In experiment [3] the test system is MV4-11. As to the kind of experiment: Induction of apoptosis in human MV4-11 cells assessed as late apoptotic cells at 10 uM measured after 72 hrs by Annexin V FITC/PI staining based flow cytometry analysis (reference value: 3.02%). The class given is functional. For orientation: In flow cytometry, cells or beads pass a laser one at a time.
Experiment [4] concerns the target T1, Histone-lysine N-methyltransferase NSD2 (Homo sapiens). As to the kind of experiment: Inhibition of NSD2 in human RS4-11 cells assessed as decrease in NCAM1 gene expression at 10 uM incubated for 72 hrs by RT-PCR analysis. The class given is cell-based.
For experiment [5], the system named is MV4-11. The experiment can be described thus: Cell cycle arrest in human MV4-11 cells assessed as increase in accumulation of G0/G1 phase at 5 to 10 uM measured after 24 hrs by PI staining based flow cytometric analysis. It counts as functional. Conditions: dose 5-10 µM.
For experiment [6], the system named is MV4-11. As to the kind of experiment: Induction of apoptosis in human MV4-11 cells assessed as late apoptotic cells at 5 uM measured after 72 hrs by Annexin V FITC/PI staining based flow cytometry analysis (reference value: 3.02%). It counts as functional.
Experiment [7] deals with T1, Histone-lysine N-methyltransferase NSD2 (Homo sapiens). As to the kind of experiment: Inhibition of NSD2 in human RS4-11 cells assessed as decrease in RRAS2 gene expression at 10 uM incubated for 72 hrs by RT-PCR analysis. It counts as cell-based.
For experiment [8] the target is unchanged. As to the kind of experiment: Binding affinity to His6/Sumo-tagged NSD2 PWWP1 (unknown origin) (208 to 368 residues) expressed in Escherichia coli BL21 (DE3) assessed as increase in melting temperature by thermal shift assay. The following applies: DDE = dose-dependent effect.
For experiment [9], the system named is MV4-11. The experiment can be described thus: Induction of apoptosis in human MV4-11 cells assessed as early apoptotic cells at 10 uM measured after 72 hrs by Annexin V FITC/PI staining based flow cytometry analysis (reference value: 4.58 %). The class given is functional.
Experiment [10] concerns the target T1, Histone-lysine N-methyltransferase NSD2 (Homo sapiens). As to the kind of experiment: Inhibition of NSD2 in human KMS-11 cells assessed as decrease in TGFA gene expression at 10 uM incubated for 72 hrs by RT-PCR analysis. The class given is cell-based.
The target is the same in experiment [11]. The experiment can be described thus: Inhibition of NSD2 in human KMS-11 cells assessed as decrease in PAK1 gene expression at 10 uM incubated for 72 hrs by RT-PCR analysis. The class given is cell-based.
Experiment [12] shares this target. The experiment can be described thus: Inhibition of NSD2 in human RS4-11 cells assessed as decrease in TGFA gene expression at 10 uM incubated for 72 hrs by RT-PCR analysis. The class given is cell-based.
Experiment [13] concerns MV4-11. As to the kind of experiment: Induction of apoptosis in human MV4-11 cells assessed as viable cells at 10 uM measured after 72 hrs by Annexin V FITC/PI staining based flow cytometry analysis (reference value: 91.7%). It counts as functional. The following applies: read-out: Activity.
Experiment [14] has as its system KMS-11. The experiment can be described thus: Cell cycle arrest in human KMS-11 cells assessed as increase in accumulation of G0/G1 phase at 5 to 10 uM measured after 24 hrs by PI staining based flow cytometric analysis. It counts as functional. The following applies: dose 5-10 µM.
The target of experiment [15] is T1, Histone-lysine N-methyltransferase NSD2 (Homo sapiens). As to the kind of experiment: Inhibition of NSD2 in human KMS-11 cells assessed as decrease in NCAM1 gene expression at 10 uM incubated for 72 hrs by RT-PCR analysis. The class given is cell-based.
The target is the same in experiment [16]. The experiment can be described thus: Inhibition of NSD2 in human RS4-11 cells assessed as decrease in PAK1 gene expression at 10 uM incubated for 72 hrs by RT-PCR analysis. It counts as cell-based.
Experiment [17] relates to KMS-11. The experiment can be described thus: Induction of apoptosis in human KMS-11 cells assessed as necrotic cells at 5 uM measured after 72 hrs by Annexin V FITC/PI staining based flow cytometry analysis (reference value: 0.88%). It counts as functional.
In experiment [18] the test system is MV4-11. As to the kind of experiment: Induction of apoptosis in human MV4-11 cells assessed as necrotic cells at 10 uM measured after 72 hrs by Annexin V FITC/PI staining based flow cytometry analysis (reference value: […]). It counts as functional.
Experiment [19] relates to KMS-11. As to the kind of experiment: Induction of apoptosis in human KMS-11 cells assessed as late apoptotic cells at 5 uM measured after 72 hrs by Annexin V FITC/PI staining based flow cytometry analysis (reference value: 13.3 %). It counts as functional.

As a reminder, the IC50 is the concentration that gives 50% inhibition.

The source made the active and inactive calls. The rule behind the calls is not given here.

On to `Cc1cc(CN2CCC(N)CC2)cc(C)c1-c1ncn(C)c1-c1ccc(C#N)c2ccccc12`, for which, in experiment [1], the IC50 is 6.3 µM. The inhibition result in [2], in experiment [4], in [7], in experiment [10], in [11] and in experiment [12] was “Active” throughout. Further, the inhibition entry in experiment [15] and in experiment [16] was “Active” in each case. In addition, the Activity in experiment [3] is 19.8%; in [6] it was 2.37%; in experiment [8], “Dde”; in experiment [9] it was 41.3%; in experiment [17] it was 0.69%; in [18] it was 1.56%. Moreover, the Activity in experiment [19] was determined as 16.5%. The outcome in experiment [5] and in experiment [14] was Active. In addition, the viability at 10 µM in [13] came to 37.3%.
